The target of one data set is human DAT (Homo sapiens, UniProt Q01959). Kind of data set: DAT transporter inhibitory activity test (neurotransmitter transporter uptake assay kit). Particulars: DAT stably transfected HEK cells; read-out: DAT (IC50). In kind it is cell-based. The protocol: Transporter inhibition of human DAT and NET expressed in HEK-293 cells was assessed using a neurotransmitter transporter uptake assay kit. The assay was performed as described in the kit instructions, using centanafadine as a positive control. The specific procedures were as follows:
DAT stably transfected culture: The DAT-HEK cell line was cultured in DMEM medium containing 10% fetal bovine serum and 0.2 mg/mL hygromycin B at 37° C. with 5% carbon dioxide.
DAT stably transfected cell passage: the old medium was removed, and the cells were washed once with PBS; 1 mL of TrypLE™ Express solution was then added, and the cells were incubated at 37° C. for about 2 min. When the cells were detached from the bottom of the dish, about 5 mL of complete medium pre-heated at 37° C. was added. The cell suspension was gently pipetted to separate the aggregated cells. The cell suspension was transferred to a sterile centrifuge tube and centrifuged at 1000 rpm for 5 min. In order to maintain the physiological activity of the cells, the experimental cell confluence was controlled at about 80%.
• a) After overnight transfection of NET cells, the cells were digested with trypsin, resuspended with DMEM+10% Dialyzed FBS medium, seeded into a 384-well plate at 20000 cells/well, and incubated overnight. […] After centrifuging, the plate was incubated at 37° C. for 30 min. • e) A detection reagent was prepared using 1×HBSS, and 16 μL of the detection reagent was added to each well. […] Curve fitting and IC50 calculation were performed using GraphPad Prism software nonlinear regression method.

Data set [1] can be described thus: In vivo metabolism (pharmacokinetic) experiment in mice. Also noted: species or system male ICR mice. Conditions: mouse, male ICR mice; for AUC(0-inf) / Cmax / half-life: oral 10 mg/kg, plasma; for AUC(0-inf): read-out: AUC0-inf(po); for Cmax: read-out: Cmax (po); for half-life: read-out: T1/2 (po) (converted). The protocol: Animal: male ICR mice. The animals were randomly assigned to treatment groups and fasted for 12 h prior to dosing.
Drug: the compound of the present disclosure was dissolved in a vehicle (5% DMSO+5% Solutol HS15+90% saline). For intravenous (iv) administration, the dose was 2.5 mg/kg with a dosing volume of 5 mL/kg; for oral (po) administration, the dose was 10 mg/kg with a dosing volume of 10 mL/kg body weight. Sample collection and bioanalysis: blood was collected from the orbit of the mice and added into EP tubes containing heparin sodium at 0.083, 0.25, 0.5, 1, 2, 4, 6, and 8 h (n=3 for each time point). Immediately after blood collection, the mice were euthanized by cervical dislocation, and mouse brains were collected at the corresponding time points. All samples were promptly collected, snap-frozen, and stored at −70° C. for later use. Plasma samples were obtained by centrifugation of whole blood. 10 μL of plasma was mixed with 190 μL of internal standard solution (20 ng/ml in acetonitrile containing 0.1% formic acid). After mixing, the samples were centrifuged at 13000 rpm for 10 min, and 120 μL of the supernatant was separately collected. Depending on the sensitivity of the compound, 0.5-10 μL of the supernatant was taken for drug analysis using the appropriate liquid chromatography-tandem mass spectrometry (LC-MS/MS). Each analyte was calibrated and identified using standards. According to brain tissue: the extract (50% acetonitrile/water) at a ratio of 1 g:8 mL was homogenized for 2 min using five 3 mm magnetic beads in an OMNI Bead Ruptor 24 Elite homogenizer at 3.2 m/s and centrifuged at 4° C. and 3000 g for 3 min. 50 μL of the supernatant was mixed with 200 μL of internal standard solution (20 ng/mL in 80% acetonitrile/water). After mixing, the samples were centrifuged at 13,000 rpm for 10 min, and 120 μL of the supernatant was separately collected. Depending on the sensitivity of the compound, 0.5-10 μL of the supernatant was taken for drug analysis using the appropriate LC-MS/MS method. Each analyte was calibrated and identified using standards.
Data analysis: drug concentrations below the lower limit of quantification (LLOQ) were considered zero. Pharmacokinetic parameters were analyzed using PK Solver with a non-compartmental, bolus injection or extravascular input analysis models. Data points below the LLOQ were excluded to improve the efficacy of t1/2 calculation.

A further data set concerns the target human SERT (Homo sapiens, UniProt P31645). Briefly: Inhibitory activity assay against 5-HT transporter (neurotransmitter transporter uptake assay kit). Type of data set: cell-based. Conditions: HEK-293 cells overexpressing human SERT; read-out: 5-HTT (IC50). As to the method:
In HEK-293 cells overexpressing human SERT, the transporter inhibitory effect of the test compound on human SERT was assayed using a Neurotransmitter transporter uptake assay kit (Molecular devices).

From patent US20260174739A1 (priority 2022, published 2026) come the findings set out here.

Like-named read-outs stand apart in the source and are kept apart here.

Sequence of human SERT (P31645 whole entry): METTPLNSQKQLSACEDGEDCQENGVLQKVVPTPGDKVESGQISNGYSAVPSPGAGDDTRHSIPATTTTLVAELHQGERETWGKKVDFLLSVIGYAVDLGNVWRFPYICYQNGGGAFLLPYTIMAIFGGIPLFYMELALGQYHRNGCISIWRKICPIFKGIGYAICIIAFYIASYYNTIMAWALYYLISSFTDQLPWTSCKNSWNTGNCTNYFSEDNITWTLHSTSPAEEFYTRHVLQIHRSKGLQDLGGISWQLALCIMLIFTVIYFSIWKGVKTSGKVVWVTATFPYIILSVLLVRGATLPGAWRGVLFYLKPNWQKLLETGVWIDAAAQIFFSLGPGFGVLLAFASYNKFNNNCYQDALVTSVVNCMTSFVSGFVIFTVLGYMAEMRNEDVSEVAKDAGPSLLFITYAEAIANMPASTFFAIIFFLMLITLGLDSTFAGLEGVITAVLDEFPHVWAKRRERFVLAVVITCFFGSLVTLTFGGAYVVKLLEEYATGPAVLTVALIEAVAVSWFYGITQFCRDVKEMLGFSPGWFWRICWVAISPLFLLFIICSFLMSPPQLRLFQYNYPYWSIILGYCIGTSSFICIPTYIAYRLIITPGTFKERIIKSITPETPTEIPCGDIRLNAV
Sequence of human DAT (Q01959 whole entry): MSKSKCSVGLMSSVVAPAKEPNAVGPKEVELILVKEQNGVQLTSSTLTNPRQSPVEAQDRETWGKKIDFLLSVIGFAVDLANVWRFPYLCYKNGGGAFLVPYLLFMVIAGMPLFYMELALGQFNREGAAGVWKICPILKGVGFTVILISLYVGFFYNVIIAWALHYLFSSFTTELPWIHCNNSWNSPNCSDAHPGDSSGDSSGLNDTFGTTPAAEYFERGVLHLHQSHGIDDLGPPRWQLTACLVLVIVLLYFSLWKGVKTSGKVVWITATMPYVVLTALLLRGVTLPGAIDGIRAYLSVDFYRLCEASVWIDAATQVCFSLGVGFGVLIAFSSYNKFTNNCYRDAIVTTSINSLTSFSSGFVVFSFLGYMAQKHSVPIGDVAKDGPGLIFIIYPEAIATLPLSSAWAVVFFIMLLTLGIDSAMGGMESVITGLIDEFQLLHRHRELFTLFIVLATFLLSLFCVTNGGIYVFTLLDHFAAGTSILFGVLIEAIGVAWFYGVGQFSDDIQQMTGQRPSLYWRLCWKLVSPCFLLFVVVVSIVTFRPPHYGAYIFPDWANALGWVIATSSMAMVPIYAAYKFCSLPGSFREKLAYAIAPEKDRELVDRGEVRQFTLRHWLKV

One may read the IC50 as the concentration that inhibits the measured activity by half. Consider `CCOc1cccc(C2(NC)CCc3nc(N)sc3C2)c1` (racemic) [rac-A342, 6-(3-ethoxyphenyl)-N^6-methyl-4,5,6,7-tetrahydrobenzo[d]thiazole-2,6-diamine], for which the IC50 at human DAT came out at 0.35 µM.
A word on the Cmax: it is the maximum level reached in the sampled fluid or tissue. For the compound `O=C(O)c1cc2c(s1)CCC(c1ccccc1)(N1CCOCC1)C2` (racemic) [rac-A46, 5-morpholino-5-phenyl-4,5,6,7-tetrahydrobenzothiophen-2-carboxylic acid], in data set [1] (male, ICR, po, 10 mg/kg), the AUC(0-inf) worked out at 3900 ng·h/mL, the Cmax was found to be 2710 ng/mL and the half-life is 2.6 h.
For `Clc1cccc(C2(N3CCCCC3)CCc3nnsc3C2)c1` (racemic) [rac-A58, 6-(3-chlorophenyl)-6-(piperidin-1-yl)-4,5,6,7-tetrahydrobenzothiadiazole], the IC50 at human DAT amounted to 2.7 µM.
As for `c1ccc(C2(N3CCOCC3)CCc3sccc3C2)cc1` (racemic) [rac-A47, 4-(5-phenyl-4,5,6,7-tetrahydrobenzothiophen-5-yl)morpholine], the IC50 at human DAT stood at 1.3 µM.
On to `CCNC1(c2cccc(OC)c2)CCc2nc(N)sc2C1` (racemic) [rac-A226, N^6-ethyl-6-(3-methoxyphenyl)-4,5,6,7-tetrahydrobenzo[d]thiazole-2,6-diamine], for which the IC50 at human SERT and on human DAT was 2 µM in each case.
Regarding `CNC1(c2ccc(Cl)cc2)CCc2nc(N)sc2C1` (racemic) [rac-A332, 6-(4-chlorophenyl)-N^6-methyl-4,5,6,7-tetrahydrobenzo[d]thiazole-2,6-diamine], on human DAT, the concentration for half-maximal inhibition (IC50) worked out at 3.2 µM.
Same read-out and setting: with `Nc1nc2c(s1)C[C@@](c1ccccc1)(N1CCCC1)CC2` [S-A50] the figure was 2.4 µM; with `Nc1nc2c(s1)C[C@](N)(c1ccccc1)CC2` [S-A1], 6.5 µM; with `c1ccc(C2(N3CCCC3)CCc3nnsc3C2)cc1` (racemic) [rac-A54, 6-phenyl-6-(pyrrolidin-1-yl)-4,5,6,7-tetrahydrobenzothiadiazole], 2.8 µM.
On the same count and under the same terms, with `Nc1nc2c(s1)CC(N)(c1ccc3c(c1)OCO3)CC2` (racemic) [rac-A303, 6-(benzo[d][1,3]dioxol-5-yl)-4,5,6,7-tetrahydrobenzo[d]thiazole-2,6-diamine] the figure was 8.2 µM.
As for `NC1(c2cccc(O)c2)CCc2nc(NCC(F)(F)F)sc2C1` (racemic) [rac-A396, 3-(6-amino-2-((2,2,2-trifluoroethyl)amino)-4,5,6,7-tetrahydrobenzo[d]thiazol-6-yl)phenol], the IC50 on human DAT came to 18 µM.
`NC1(c2ccc3ccccc3c2)CCc2sccc2C1` (racemic) [rac-A247, 5-(naphthalen-2-yl)-4,5,6,7-tetrahydrobenzo[b]thiophen-5-amine]: the IC50 amounted to 4.5 µM at human SERT and 1.5 µM at human DAT.
In the case of `Nc1nc2c(s1)CC(NCC1CC1)(c1ccccc1F)CC2` (racemic) [rac-A374, N^6-(cyclopropylmethyl)-6-(2-fluorophenyl)-4,5,6,7-tetrahydrobenzo[d]thiazole-2,6-diamine], the IC50 at human DAT was 3.8 µM.
As for `COc1cccc(C2(N(C)C)CCc3nc(N)sc3C2)c1` (racemic) [rac-A283, 6-(3-methoxyphenyl)-N^6,N^6-dimethyl-4,5,6,7-tetrahydrobenzo[d]thiazole-2,6-diamine], at human DAT, the IC50 worked out at 0.45 µM.
Still for that read-out and setting: with `CC(C)Oc1cccc(C2(N)CCc3nc(N)sc3C2)c1` (racemic) [rac-A321, 6-(3-isopropoxyphenyl)-4,5,6,7-tetrahydrobenzo[d]thiazole-2,6-diamine] the figure was 5.9 µM.
Take `CNC1(c2ccccc2)CCc2[nH]ncc2C1` (racemic) [rac-A69, N-methyl-5-phenyl-4,5,6,7-tetrahydro-1H-indazol-5-amine]: the bioavailability in data set [1] (oral 10 mg/kg vs iv 2.5 mg/kg, read-out: F (%)) turned out to be 132%. Besides, in data set [1], the AUC(0-inf) was 602 ng·h/mL, the maximum concentration (Cmax) came out at 456 ng/mL and the half-life is 0.69 h.
In the case of `CNCC1(c2ccccc2)CCc2nc(N)sc2C1` (racemic) [rac-A252, 6-((methylamino)methyl)-6-phenyl-4,5,6,7-tetrahydrobenzo[d]thiazol-2-amine], the IC50 at human DAT is 9.5 µM.
The same measure, in the same setting: with `N[C@@]1(c2ccccc2)CCc2ncsc2C1` [S-A14] the figure was 11 µM.
The same measure, in the same setting: with `CCOc1cccc([C@]2(N)CCc3nc(N)sc3C2)c1` [S-A228, (S)-6-(3-ethoxyphenyl)-4,5,6,7-tetrahydrobenzo[d]thiazole-2,6-diamine] the figure was 1.8 µM.
In the case of `CNC1(c2cccnc2)CCc2nc(N)sc2C1` (racemic) [rac-A99, N^6-methyl-6-(pyridin-3-yl)-4,5,6,7-tetrahydrobenzothiazole-2,6-diamine], the IC50 on human DAT worked out at 11 µM.
Still for that read-out and setting: with `CN(C)C1(c2cccc(O)c2)CCc2nc(N)sc2C1` (racemic) [rac-A305, 3-(2-amino-6-dimethylamino-4,5,6,7-tetrahydrobenzo[d]thiazol-6-yl)phenol] the figure was 0.24 µM.
Take `CN(C)C1(c2ccccc2F)CCc2nc(N)sc2C1` (racemic) [rac-A234, 6-(2-fluorophenyl)-N^6,N^6-dimethyl-4,5,6,7-tetrahydrobenzo[d]thiazole-2,6-diamine]: the IC50 at human SERT came out at 0.3 µM; at human DAT, 6.3 µM.
Regarding `COc1cc(C2(N)CCc3nc(N)sc3C2)ccn1` (racemic) [rac-A309, 6-(2-methoxypyridin-4-yl)-4,5,6,7-tetrahydrobenzo[d]thiazole-2,6-diamine], the IC50 on human DAT worked out at 14 µM.
